Like-named read-outs stand apart in the source and are kept apart here.
Biological target: T1, human GLP-1 receptor (Homo sapiens, UniProt P43220)
T1 construct: expressed in transfected cells
Assay: GLP-1R cAMP Assay
Assay type: cell-based
Procedure, shortened: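 Luminescent enzyme-complementation detection of cAMP, read after cell lysis and overnight incubation, with dose-response curve fitting. Stimulation lasted 30 min, using 20-point triplicate dosing on CHO cells (10,000 per well) stably overexpressing human GLP-1R.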

[1] = cAMP accumulation in CHO cells stably overexpressing the human GLP-1 receptor, 30 min treatment, HitHunter cAMP kit, read-out: EC50

T1 sequence (P43220 24-463): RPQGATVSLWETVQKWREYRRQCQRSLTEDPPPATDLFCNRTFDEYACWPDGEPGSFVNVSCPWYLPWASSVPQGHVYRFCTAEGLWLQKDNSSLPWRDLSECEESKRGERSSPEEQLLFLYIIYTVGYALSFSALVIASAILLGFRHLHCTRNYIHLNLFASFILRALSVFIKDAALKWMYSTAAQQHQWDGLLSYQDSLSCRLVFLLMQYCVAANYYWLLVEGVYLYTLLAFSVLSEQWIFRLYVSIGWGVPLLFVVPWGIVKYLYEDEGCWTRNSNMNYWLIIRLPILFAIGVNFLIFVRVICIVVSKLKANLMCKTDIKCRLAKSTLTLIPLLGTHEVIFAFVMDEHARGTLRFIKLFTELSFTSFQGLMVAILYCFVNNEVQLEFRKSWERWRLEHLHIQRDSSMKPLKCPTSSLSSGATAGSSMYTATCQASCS

SMILES	EC50 [1]	EC50
Cc1ccc(N(C)Cc2cccc(C(=O)N3CCN(Cc4nc5ccc(C(=O)O)cc5n4C[C@@H]4CCO4)CC3)c2)c(Cl)c1 [Example 78, (S)-2-((4-(3-(((2-Chloro-4-methylphenyl)(methyl)amino)methyl)benzoyl)piperazin-1-yl)methyl)-1-(oxetan-2-ylmethyl)-1H-benzo[d]imidazole-6-carboxylic acid]	> 500 nM	–
CCn1cncc1Cn1c(CN2CCN(C(=O)c3cnc(COc4ccc(Cl)cc4Cl)o3)C[C@@H]2C)nc2ccc(C(=O)O)cc21 [Compound 256, 2-{[(2S)-4-{2-[(2,4-dichlorophenoxy)methyl]-1,3-oxazole-5-carbonyl}-2-methylpiperazin-1-yl]methyl}-1-[(1-ethyl-1H-imidazol-5-yl)methyl]-1H-1,3-benzodiazole-6-carboxylic acid]	< 50 nM	–
N#Cc1ccc(OCc2nccc(OC3CCN(Cc4nc5ccc(C(=O)O)nc5n4C[C@@H]4CCO4)CC3)n2)c(F)c1 [Compound 373]	< 50 nM	–
Cc1ccc(N(C)c2cccc(C=C3CCN(Cc4nc5ccc(C(=O)O)cc5n4C[C@@H]4CCO4)CC3)c2)c(Cl)c1 [Example 106, (S)-2-((4-(3-((2-chloro-4-methylphenyl)(methyl)amino)benzylidene)piperidin-1-yl)methyl)-1-(oxetan-2-ylmethyl)-1H-benzo[d]imidazole-6-carboxylic acid]	50 to 500 nM	–
CCn1cncc1Cn1c(CN2CCC(Oc3ccnc(COc4ccc(C#N)cc4F)c3)CC2)nc2ccc(C(=O)O)cc21 [Compound 275, 2-{[4-({2-[(4-cyano-2-fluorophenoxy)methyl]pyridin-4-yl}oxy)piperidin-1-yl]methyl}-1-[(1-ethyl-1H-imidazol-5-yl)methyl]-1H-1,3-benzodiazole-6-carboxylic acid]	< 50 nM	–
Cc1ccc(OCc2ccc(F)c(CC3CCN(Cc4nc5ccc(C(=O)O)cc5n4C[C@@H]4CCO4)CC3)n2)c(Cl)c1 [Compound 123, 2-{[4-({6-[(2-chloro-4-methylphenoxy)methyl]-3-fluoropyridin-2-yl}methyl)piperidin-1-yl]methyl}-1-{[(2S)-oxetan-2-yl]methyl}-1H-1,3-benzodiazole-6-carboxylic acid]	< 50 nM	–
O=C(O)c1ccc2nc(CN3CCC(Cc4cnc(COc5cnc(C6CC6)cc5Cl)o4)CC3)n(C[C@@H]3CCO3)c2c1 [Example 154, (S)-2-((4-((2-(((4-Chloro-6-cyclopropylpyridin-3-yl)oxy)methyl)oxazol-5-yl)methyl)piperidin-1-yl)methyl)-1-(oxetan-2-ylmethyl)-1H-benzo[d]imidazole-6-carboxylic acid]	50 to 500 nM	–
Cc1ccc(N(C)c2cc(F)cc(C(=O)N3CCN(Cc4nc5ccc(C(=O)O)cc5n4C[C@@H]4CCO4)CC3)c2)c(Cl)c1 [Compound 100, 2-[(4-{3-[(2-chloro-4-methylphenyl)(methyl)amino]-5-fluorobenzoyl}piperazin-1-yl)methyl]-1-{[(2S)-oxetan-2-yl]methyl}-1H-1,3-benzodiazole-6-carboxylic acid]	< 50 nM	–
Cn1cncc1Cn1c(CN2CCC(Oc3ccnc(COc4ccc(Cl)cc4F)c3)CC2)nc2ccc(C(=O)O)cc21 [Compound 267, 2-{[4-({2-[(4-chloro-2-fluorophenoxy)methyl]pyridin-4-yl}oxy)piperidin-1-yl]methyl}-1-[(1-methyl-1H-imidazol-5-yl)methyl]-1H-1,3-benzodiazole-6-carboxylic acid]	< 50 nM	–
O=C(O)c1ccc2nc(CN3CCc4[nH]c5ccc(OCc6ccc(Cl)cc6Cl)cc5c4C3)n(C[C@@H]3CCO3)c2c1 [Compound 142, 2-({8-[(2,4-dichlorophenyl)methoxy]-1H,2H,3H,4H,5H-pyrido[4,3-b]indol-2-yl}methyl)-1-{[(2S)-oxetan-2-yl]methyl}-1H-1,3-benzodiazole-6-carboxylic acid]	> 500 nM	–
CCn1cncc1Cn1c(CN2CCC(Cc3cnc(COc4ncc(C5CC5)cc4Cl)o3)CC2)nc2ccc(C(=O)O)cc21 [Compound 144, 2-({4-[(2-{[(3-chloro-5-cyclopropylpyridin-2-yl)oxy]methyl}-1,3-oxazol-5-yl)methyl]piperidin-1-yl}methyl)-1-[(1-ethyl-1H-imidazol-5-yl)methyl]-1H-1,3-benzodiazole-6-carboxylic acid]	< 50 nM	–
N#CCC1(Cn2c(CN3CCC(Oc4ccnc(COc5ccc(Cl)cc5F)c4)CC3)nc3ccc(C(=O)O)cc32)CC1 [Compound 337]	< 50 nM	–
C[C@H]1C[C@@H](Oc2ccnc(COc3cc(F)c(F)cc3F)n2)CCN1Cc1nc2ccc(C(=O)O)cc2n1C[C@@H]1CCO1 [Compound 514, 2-{[(2S,4S)-2-methyl-4-({2-[(2,4,5-trifluorophenoxy)methyl]pyrimidin-4-yl}oxy)piperidin-1-yl]methyl}-1-{[(2S)-oxetan-2-yl]methyl}-1H-1,3-benzodiazole-6-carboxylic acid]	< 50 nM	–
N#Cc1ccc(COc2cccc(C(=O)N3CCN(Cc4nc5ccc(C(=O)O)cc5n4C[C@@H]4CCO4)CC3)c2)c(F)c1 [Compound 66, 2-[(4-{3-[(4-cyano-2-fluorophenyl)methoxy]benzoyl}piperazin-1-yl)methyl]-1-{[(2S)-oxetan-2-yl]methyl}-1H-1,3-benzodiazole-6-carboxylic acid]	> 500 nM	–

Next, values leading:

EC50 [1]	EC50	SMILES
50 to 500 nM	–	O=C(O)c1ccc2nc(CN3CCC(Oc4cc(COc5ccc(Cl)cc5Cl)ccn4)CC3)n(C[C@@H]3CCO3)c2c1 [Example 178, (S)-2-((4-((4-((2,4-Dichlorophenoxy)methyl)pyridin-2-yl)oxy)piperidin-1-yl)methyl)-1-(oxetan-2-ylmethyl)-1H-benzo[d]imidazole-6-carboxylic acid]
< 50 nM	–	O=C(O)c1cc(F)c2nc(CN3CCC(Oc4cccc(COc5ccc(C(F)F)cc5F)c4)CC3)n(CC3(CF)CC3)c2c1 [Compound 303]
< 50 nM	–	O=C(O)c1cc(F)c2nc(CN3CCC(Oc4cccc(COc5ccc(C(F)F)cc5F)c4)CC3)n(C[C@@H]3CCO3)c2c1 [Compound 310]
< 50 nM	–	O=C(O)c1cc(F)c2nc(CN3CCC(Oc4ccnc(COc5ccc(C(F)F)cc5F)c4)CC3)n(C[C@@H]3CCO3)c2c1 [Compound 302]
–	< 50 nM	C[C@H]1C[C@@H](Oc2ccnc(COc3ccc(C#N)cc3F)c2)CCN1Cc1nc2ccc(C(=O)O)cc2n1C[C@@H]1CCO1 [Compound 363]
< 50 nM	–	Cc1cc(C(=O)O)cc2c1nc(CN1CCC(Oc3ccnc(COc4ccc(F)cc4C#N)n3)CC1)n2C[C@@H]1CCO1 [Compound 500, 2-{[4-({2-[(2-cyano-4-fluorophenoxy)methyl]pyrimidin-4-yl}oxy)piperidin-1-yl]methyl}-4-methyl-1-{[(2S)-oxetan-2-yl]methyl}-1H-1,3-benzodiazole-6-carboxylic acid]
> 500 nM	–	O=C(O)c1ccc2nc(CN3CCC(Oc4cccnc4COc4ccc(Cl)cc4Cl)CC3)n(C[C@@H]3CCO3)c2c1 [Compound 286, 2-{[4-({2-[(2,4-dichlorophenoxy)methyl]pyridin-3-yl}oxy)piperidin-1-yl]methyl}-1-{[(2S)-oxetan-2-yl]methyl}-1H-1,3-benzodiazole-6-carboxylic acid]
< 50 nM	–	O=C(O)c1ccc2nc(CN3CCC(Oc4ccnc(COc5ccc(Cl)cc5Cl)c4)CC3)n(C[C@H]3CCOC3)c2c1 [Compound 169, 2-{[4-({2-[(2,4-dichlorophenoxy)methyl]pyridin-4-yl}oxy)piperidin-1-yl]methyl}-1-{[(3R)-oxolan-3-yl]methyl}-1H-1,3-benzodiazole-6-carboxylic acid]

Source: US20230089073A1 (Carmot Therapeutics, Inc., priority 2021, published 2023)
